biological target: Human Factor D (Homo sapiens (Human), UniProt P00746); assay: Human Factor D Assay; assay type: biochemical; details: not given
In short: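 First, compound at various concentrations is mixed with 80 nM (final) human serum Factor D in 50 mM Tris, 1M NaCl, pH 7.5 for 5 min at room temperature.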

Sequence of Human Factor D (P00746 26-253): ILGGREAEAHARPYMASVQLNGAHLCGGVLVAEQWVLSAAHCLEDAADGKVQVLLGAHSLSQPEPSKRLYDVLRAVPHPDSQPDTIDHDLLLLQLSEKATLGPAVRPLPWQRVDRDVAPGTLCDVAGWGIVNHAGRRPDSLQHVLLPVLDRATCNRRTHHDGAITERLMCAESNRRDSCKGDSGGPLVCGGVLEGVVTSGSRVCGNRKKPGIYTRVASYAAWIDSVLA

SMILES | IC50 [nM]
CC(=O)c1cn(CC(=O)N2C[C@H](F)C[C@H]2C(=O)NC2CCCN(c3cc(C)ccc3F)C2=O)c2ccc(-c3ccnnc3)cc12 (stereo partly drawn) [Compound 125, (2S,4R)-1-(2-(3-acetyl-5-(pyridazin-4-yl)-1H-indol-1-yl)acetyl)-4-fluoro-N-(1-(2-fluoro-5-methylphenyl)-2-oxopiperidin-3-yl)pyrrolidine-2-carboxamide] | 1000 to 10000
NC(=O)c1nn(CC(=O)N2C[C@H](F)C[C@H]2C(=O)NCc2ccccn2)c2ccc(-c3ccnnc3)cc12 [Compound 139, 1-(2-((2S,4R)-4-fluoro-2-(pyridin-2-ylmethylcarbamoyl)pyrrolidin-1-yl)-2-oxoethyl)-5-(pyridazin-4-yl)-1H-indazole-3-carboxamide] | 1000 to 10000
CC(=O)c1cn(CC(=O)N2C[C@H](F)C[C@H]2C(=O)NC2CCCN(c3cnn(C)c3)C2)c2ccc(-c3ccnnc3)cc12 (stereo partly drawn) [Compound 140, (2S,4R)-1-(2-(3-acetyl-5-(pyridazin-4-yl)-1H-indol-1-yl)acetyl)-4-fluoro-N-(1-(1-methyl-1H-pyrazol-4-yl)piperidin-3-yl)pyrrolidine-2-carboxamide] | 1000 to 10000

same assay, conditions: Human Factor D 80 nM, substrate Z-L-Lys-SBzl; read-out: IC50

SMILES | IC50 [nM]
COc1cc(C)cc2c1OCCC2NC(=O)[C@@H]1C[C@@H](F)CN1C(=O)Cn1nc(C(N)=O)c2cc(-c3ccnnc3)ccc21 (stereo partly drawn) [Compound 122, 1-(2-((2S,4R)-4-fluoro-2-(8-methoxy-6-methylchroman-4-ylcarbamoyl)pyrrolidin-1-yl)-2-oxoethyl)-5-(pyridazin-4-yl)-1H-indazole-3-carboxamide] | > 10000
COc1cc(C)cc2c1OCCC2NC(=O)[C@@H]1C[C@@H](F)CN1C(=O)Cn1cc(C(C)=O)c2cc(-c3ccnnc3)ccc21 (stereo partly drawn) [Compound 123, (2S,4R)-1-(2-(3-acetyl-5-(pyridazin-4-yl)-1H-indol-1-yl)acetyl)-4-fluoro-N-(8-methoxy-6-methylchroman-4-yl)pyrrolidine-2-carboxamide] | > 10000
CC(=O)c1cn(CC(=O)N2C[C@H](F)C[C@H]2C(=O)Nc2cccc(Cl)c2C(F)(F)F)c2ccc(-c3ccnnc3)cc12 [Compound 126, (2S,4R)-1-(2-(3-acetyl-5-(pyridazin-4-yl)-1H-indol-1-yl)acetyl)-N-(3-chloro-2-(trifluoromethyl)phenyl)-4-fluoropyrrolidine-2-carboxamide] | > 10000
CC(=O)c1cn(CC(=O)N2C[C@H](F)C[C@H]2C(=O)Nc2cncc(Br)n2)c2ccc(-c3ccnnc3)cc12 [Compound 127, (2S,4R)-1-(2-(3-acetyl-5-(pyridazin-4-yl)-1H-indol-1-yl)acetyl)-N-(6-bromopyrazin-2-yl)-4-fluoropyrrolidine-2-carboxamide] | < 1000
NC(=O)c1nn(CC(=O)N2C[C@H](F)C[C@H]2C(=O)Nc2cncc(Br)n2)c2ccc(-c3ccnnc3)cc12 [Compound 128, 1-(2-((2S,4R)-2-(6-bromopyrazin-2-ylcarbamoyl)-4-fluoropyrrolidin-1-yl)-2-oxoethyl)-5-(pyridazin-4-yl)-1H-indazole-3-carboxamide] | < 1000
NC(=O)c1nn(CC(=O)N2C[C@H](F)C[C@H]2C(=O)Nc2ccc3ccccc3c2)c2ccc(-c3ccnnc3)cc12 [Compound 131, 1-(2-((2S,4R)-4-fluoro-2-(naphthalen-2-ylcarbamoyl)pyrrolidin-1-yl)-2-oxoethyl)-5-(pyridazin-4-yl)-1H-indazole-3-carboxamide] | > 10000
CC(=O)c1cn(CC(=O)N2[C@@H]3C[C@@H]3C[C@H]2C(=O)Nc2cccc(Br)n2)c2ccc(-c3cnc(C)nc3)cc12 [Compound 132, (1R,3S,5R)-2-(2-(3-acetyl-5-(2-methylpyrimidin-5-yl)-1H-indol-1-yl)acetyl)-N-(6-bromopyridin-2-yl)-2-azabicyclo[3.1.0] hexane-3-carboxamide] | < 1000
CC(=O)c1cn(CC(=O)N2[C@@H]3C[C@@H]3C[C@H]2C(=O)Nc2cccc(-c3ccccc3Cl)c2F)c2ccc(-c3cnc(C)nc3)cc12 [Compound 133, (1R,3S,5R)-2-(2-(3-acetyl-5-(2-methylpyrimidin-5-yl)-1H-indol-1-yl)acetyl)-N-(2′-chloro-2-fluorobiphenyl-3-yl)-2-azabicyclo[3.1.0] hexane-3-carboxamide] | < 1000
CC(=O)c1cn(CC(=O)N2[C@@H]3C[C@@H]3C[C@H]2C(=O)NCc2cccc(Cl)c2F)c2ccc(-c3cnc(C)nc3)cc12 [Compound 134, (1R,3S,5R)-2-(2-(3-acetyl-5-(2-methylpyrimidin-5-yl)-1H-indol-1-yl)acetyl)-N-(3-chloro-2-fluorobenzyl)-2-azabicyclo[3.1.0] hexane-3-carboxamide] | < 1000
CC(=O)c1cn(CC(=O)N2C[C@H](F)C[C@H]2C(=O)NCc2cccc(Cl)c2F)c2ccc(-c3cnc(C)nc3)cc12 [Compound 135, (2S,4R)-1-(2-(3-acetyl-5-(2-methylpyrimidin-5-yl)-1H-indol-1-yl)acetyl)-N-(3-chloro-2-fluorobenzyl)-4-fluoropyrrolidine-2-carboxamide] | < 1000
COc1ncc(-c2ccc3c(c2)c(C(C)=O)cn3CC(=O)N2C[C@H](F)C[C@H]2C(=O)NCc2cccc(Cl)c2F)cn1 [Compound 136, (2S,4R)-1-(2-(3-acetyl-5-(2-methoxypyrimidin-5-yl)-1H-indol-1-yl)acetyl)-N-(3-chloro-2-fluorobenzyl)-4-fluoropyrrolidine-2-carboxamide] | < 1000
CC(=O)c1cn(CC(=O)N2C[C@H](F)C[C@H]2C(=O)Nc2cccc(Cl)n2)c2ccc(-c3cnc(C)nc3)cc12 [Compound 137, (2S,4R)-1-(2-(3-acetyl-5-(2-methylpyrimidin-5-yl)-1H-indol-1-yl)acetyl)-N-(6-chloropyridin-2-yl)-4-fluoropyrrolidine-2-carboxamide] | < 1000
CC(=O)Nc1ncc(-c2ccc3c(c2)c(C(C)=O)cn3CC(=O)N2C[C@H](F)C[C@H]2C(=O)Nc2cccc(-c3ccccc3Cl)c2F)cn1 [Compound 138, (2S,4R)-1-(2-(5-(2-acetamidopyrimidin-5-yl)-3-acetyl-1H-indol-1-yl)acetyl)-N-(2′-chloro-2-fluorobiphenyl-3-yl)-4-fluoropyrrolidine-2-carboxamide] | < 1000
Cn1cc(N2CCCC(NC(=O)[C@@H]3C[C@@H](F)CN3C(=O)Cn3nc(C(N)=O)c4cc(-c5ccnnc5)ccc43)C2)cn1 (stereo partly drawn) [Compound 141, 1-(2-((2S,4R)-4-fluoro-2-(1-(1-methyl-1H-pyrazol-4-yl)piperidin-3-ylcarbamoyl)pyrrolidin-1-yl)-2-oxoethyl)-5-(pyridazin-4-yl)-1H-indazole-3-carboxamide] | > 10000
CC(=O)c1cn(CC(=O)N2C[C@H](F)C[C@H]2C(=O)N[C@@H]2CCC[C@H]2O)c2ccc(-c3ccnnc3)cc12 [Compound 143, (2S,4R)-1-(2-(3-acetyl-5-(pyridazin-4-yl)-1H-indol-1-yl)acetyl)-4-fluoro-N-((1R,2R)-2-hydroxycyclopentyl) pyrrolidine-2-carboxamide] | > 10000
CC(=O)c1cn(CC(=O)N2C[C@H](F)C[C@H]2C(=O)Nc2cccc(O)n2)c2ccc(-c3ccnnc3)cc12 [Compound 144, (2S,4R)-1-(2-(3-acetyl-5-(pyridazin-4-yl)-1H-indol-1-yl)acetyl)-4-fluoro-N-(6-hydroxypyridin-2-yl)pyrrolidine-2-carboxamide] | > 10000

Source: patent publication US10287301B2 (Achillion Pharmaceuticals, Inc., priority 2015, dated 2019)
